ChEMBL document CHEMBL1201862, “PubChem BioAssay data set” (2004)
Calls of active or inactive are those of the source.

How the values were obtained:
cells [1] = type: functional, cell-based
[2] = NIH3T3 cell viability loss – ATP luminescence, mouse fibroblasts, counter-screen, dose response (AID 2010); type: functional, cell-based;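 note: cells exposed to compound for about 90 hours before reading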
[3] = toxicity toward immortalized ovarian surface epithelium – cell-based, plate reader, dry powder samples, cytotoxicity control for PAX8 inhibitor project, dose response (AID 743045); type: functional
[4] = Trypanosoma cruzi growth suppression in host cells – NIH3T3 host cells, beta-gal luminescence, confirmation (AID 2044); type: functional, cell-based;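 note: intracellular parasites grown in NIH/3T3 mouse fibroblasts as host cells; luminescent beta-galactosidase reporter signal from transgenic T. cruzi replicating inside host cells; inhibitors lower the luminescence signal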
[5] = general cell-killing toxicity readout – plate reader, dry powder samples, cytotoxicity control for PAX8 inhibitor project, dose response (AID 743021); type: functional, cell-based
cells [6] = type: functional, cell-based; remark: listed apart in the source
[7] = A2780 cell killing – plate reader, dry powder samples, cytotoxicity control, dose response (AID 743046); type: functional, cell-based
[8] = PAX8-dependent cell viability loss – plate reader, dry powder, dose response (AID 743049); type: functional, cell-based
[9] = biological target: ATP-dependent molecular chaperone HSP82 (Candida albicans (strain WO-1) (Yeast), UniProt C4YTQ8); assay: steroid-induced GRE reporter decrease in yeast – S. cerevisiae, luminescence, Hsp90 inhibitor project, dose response (AID 2400); type: functional, cell-based;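 note: beta-galactosidase luminescence from glucocorticoid response element reporter as proxy for Hsp90 function; inhibitor potency where signal loss means Hsp90 inhibition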
ATP-dependent molecular chaperone HSP82, sequence (C4YTQ8 whole entry): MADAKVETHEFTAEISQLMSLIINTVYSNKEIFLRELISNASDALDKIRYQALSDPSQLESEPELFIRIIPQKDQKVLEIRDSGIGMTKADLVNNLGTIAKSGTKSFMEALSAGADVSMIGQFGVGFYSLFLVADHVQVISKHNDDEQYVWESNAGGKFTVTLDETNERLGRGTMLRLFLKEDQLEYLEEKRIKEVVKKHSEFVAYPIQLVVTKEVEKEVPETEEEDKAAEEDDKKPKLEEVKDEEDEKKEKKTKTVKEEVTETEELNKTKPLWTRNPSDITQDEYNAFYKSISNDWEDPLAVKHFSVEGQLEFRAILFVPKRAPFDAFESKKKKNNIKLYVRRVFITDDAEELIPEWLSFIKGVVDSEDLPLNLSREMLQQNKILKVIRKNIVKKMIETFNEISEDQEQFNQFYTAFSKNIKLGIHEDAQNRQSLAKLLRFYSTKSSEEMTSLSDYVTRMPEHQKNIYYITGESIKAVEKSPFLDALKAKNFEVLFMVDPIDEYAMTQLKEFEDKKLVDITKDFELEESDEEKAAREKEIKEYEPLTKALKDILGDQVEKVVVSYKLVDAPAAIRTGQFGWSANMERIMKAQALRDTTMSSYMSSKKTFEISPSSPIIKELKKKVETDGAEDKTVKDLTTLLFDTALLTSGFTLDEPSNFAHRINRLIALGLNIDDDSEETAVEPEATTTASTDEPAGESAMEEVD

[10] = loss of viability in HepG2 cells – cell-based, CellTiter-Glo, cherry-picked, cytotoxicity control for Shn3 inhibitor project, dose response (AID 624134); type: functional
[11] = OVCAR4 cell viability loss – plate reader, dry powder, SA11, cytotoxicity control for PAX8 inhibitor project, dose response (AID 743150); type: functional, cell-based; details: OVCAR-4
[12] = non-specific 3'UTR reporter inhibition in Clone20-Shn3RL – cell-based, Renilla luciferase, cherry-picked, counter-screen for Shn3 inhibitor project, dose response (AID 624133); type: functional
[13] = IGROV1 cell killing – plate reader, dry powder samples, PAX8 inhibitor project, dose response (AID 743043); type: functional, cell-based; details: IGROV-1
[14] = Intein inhibitors as potential Tuberculosis drugs, a cytotoxicity screen. [Related pubchem assays (depositor defined):AID2221, AID2223, AID434968, AID435010, AID449749, AID449750, AID489010]; type: functional
cells [15] = type: functional
[16] = biological target: Luciferin 4-monooxygenase (Photinus pyralis, UniProt P08659); assay: Counter Screen for Luciferase-based Assay Positives. [Related pubchem assays: 620, 618, 411 ]
Luciferin 4-monooxygenase, sequence (P08659 whole entry, the tested form may be a part): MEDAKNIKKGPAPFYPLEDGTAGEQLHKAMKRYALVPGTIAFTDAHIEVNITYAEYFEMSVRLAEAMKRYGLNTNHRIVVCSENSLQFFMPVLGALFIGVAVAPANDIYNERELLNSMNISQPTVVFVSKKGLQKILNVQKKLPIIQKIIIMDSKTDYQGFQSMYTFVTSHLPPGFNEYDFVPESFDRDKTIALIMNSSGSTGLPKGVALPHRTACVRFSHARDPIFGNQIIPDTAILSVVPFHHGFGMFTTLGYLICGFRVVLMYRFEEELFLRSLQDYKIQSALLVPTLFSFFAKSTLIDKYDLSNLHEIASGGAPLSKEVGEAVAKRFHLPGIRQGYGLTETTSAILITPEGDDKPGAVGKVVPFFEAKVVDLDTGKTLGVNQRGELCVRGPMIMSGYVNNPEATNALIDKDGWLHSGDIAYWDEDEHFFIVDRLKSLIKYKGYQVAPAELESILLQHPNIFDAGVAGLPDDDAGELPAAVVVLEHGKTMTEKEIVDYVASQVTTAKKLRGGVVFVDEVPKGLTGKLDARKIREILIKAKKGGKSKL

[17] = HIV-1 AD8 envelope cell-cell fusion blockers – cherry-pick, dose response (AID 652062); type: functional, cell-based;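 note: luciferase signal from cell-cell fusion driven by HIV-1 clade B AD8 Env; potency is for inhibitors of fusion seen as a drop in luminescence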
Nonstructural protein 1 = Nonstructural protein 1 (Influenza A virus, UniProt Q194T2); type: functional, Influenza A virus (A/California/07/2009(H1N1))
Nonstructural protein 1, sequence (Q194T2 whole entry): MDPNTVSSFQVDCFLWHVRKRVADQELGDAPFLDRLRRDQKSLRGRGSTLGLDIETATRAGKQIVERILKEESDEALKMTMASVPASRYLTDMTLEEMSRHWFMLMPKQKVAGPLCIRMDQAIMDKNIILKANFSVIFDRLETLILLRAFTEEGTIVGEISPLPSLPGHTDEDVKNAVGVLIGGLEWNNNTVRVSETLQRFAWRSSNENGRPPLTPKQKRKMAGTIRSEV

[18] = HepG2 cell cytotoxicity, dose response, cytotoxicity control for non-replicating M. tuberculosis project (AID 489018); type: functional; details: Mycobacterium tuberculosis
[19] = THP-1 cell cytotoxicity, dose response, cytotoxicity control for non-replicating M. tuberculosis project (AID 489025); type: functional
[20] = off-target signal loss in HeLa-CEM21 co-culture – HeLa F-luc CTL cells, cherry-picked, counter-screen for HIV-1 Env fusion inhibitor project, dose response (AID 652040); type: functional, cell-based;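 note: potency for signal decrease marking cytotoxic or nonspecific inhibition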
[21] = Vero E6 cell cytotoxicity, dose response, cytotoxicity control for non-replicating M. tuberculosis project, secondary assay (AID 492998); type: functional, VeroE6; details: Vero C1008
[22] = blockers of HIV-1 ZM109 envelope-driven cell-cell fusion – HeLa effector, CEM target cells, luciferase, cherry-pick, dose response (AID 652058); type: functional, cell-based;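 note: luciferase signal from HIV-1 Env mediated cell-cell fusion of effector and target cells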
[23] = biological target: T1, Sentrin-specific protease 8 (Homo sapiens, UniProt Q96LD8); type: functional;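 note: kinetic enzyme assay of SENP8 cleaving a Nedd8 protein substrate, dose-response confirmation of screening hits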
T1 sequence (Q96LD8 whole entry): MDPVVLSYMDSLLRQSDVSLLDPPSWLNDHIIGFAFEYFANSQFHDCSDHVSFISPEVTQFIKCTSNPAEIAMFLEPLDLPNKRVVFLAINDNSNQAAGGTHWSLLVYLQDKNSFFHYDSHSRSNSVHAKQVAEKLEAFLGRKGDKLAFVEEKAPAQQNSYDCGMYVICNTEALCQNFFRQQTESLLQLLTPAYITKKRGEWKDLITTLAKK

[24] = alpha-synuclein stem-loop luciferase translation blockers – H4 neuroglioma cells, luminescence, confirmation (AID 1988); type: functional, cell-based
[25] = biological target: T2, Intestinal-type alkaline phosphatase (Homo sapiens, UniProt P09923); assay: activation of human intestinal alkaline phosphatase – biochemical, luminescent, uHTS hits, set 2, dose response (AID 488817); type: functional;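 note: potency of activators that raise enzyme activity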
T2 sequence (P09923 whole entry): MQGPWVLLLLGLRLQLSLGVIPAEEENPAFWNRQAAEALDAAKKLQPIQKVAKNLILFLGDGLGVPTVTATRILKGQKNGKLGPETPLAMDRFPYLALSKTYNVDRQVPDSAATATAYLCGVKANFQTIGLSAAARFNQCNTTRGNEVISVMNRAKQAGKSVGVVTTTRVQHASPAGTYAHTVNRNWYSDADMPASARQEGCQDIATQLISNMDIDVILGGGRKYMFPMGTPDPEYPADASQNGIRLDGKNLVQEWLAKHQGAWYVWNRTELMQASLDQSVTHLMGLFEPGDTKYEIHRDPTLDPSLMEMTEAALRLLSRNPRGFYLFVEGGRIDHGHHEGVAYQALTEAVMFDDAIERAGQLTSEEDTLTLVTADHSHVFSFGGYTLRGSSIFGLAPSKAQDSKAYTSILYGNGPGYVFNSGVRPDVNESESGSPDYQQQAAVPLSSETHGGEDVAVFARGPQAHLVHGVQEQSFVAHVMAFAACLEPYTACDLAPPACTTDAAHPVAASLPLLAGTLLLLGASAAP

[26] = biological target: Intestinal-type alkaline phosphatase (Mus musculus, UniProt P24822); assay: PubChem AID 488874; type: functional
Intestinal-type alkaline phosphatase (Mus musculus, UniProt P24822), sequence (P24822 whole entry): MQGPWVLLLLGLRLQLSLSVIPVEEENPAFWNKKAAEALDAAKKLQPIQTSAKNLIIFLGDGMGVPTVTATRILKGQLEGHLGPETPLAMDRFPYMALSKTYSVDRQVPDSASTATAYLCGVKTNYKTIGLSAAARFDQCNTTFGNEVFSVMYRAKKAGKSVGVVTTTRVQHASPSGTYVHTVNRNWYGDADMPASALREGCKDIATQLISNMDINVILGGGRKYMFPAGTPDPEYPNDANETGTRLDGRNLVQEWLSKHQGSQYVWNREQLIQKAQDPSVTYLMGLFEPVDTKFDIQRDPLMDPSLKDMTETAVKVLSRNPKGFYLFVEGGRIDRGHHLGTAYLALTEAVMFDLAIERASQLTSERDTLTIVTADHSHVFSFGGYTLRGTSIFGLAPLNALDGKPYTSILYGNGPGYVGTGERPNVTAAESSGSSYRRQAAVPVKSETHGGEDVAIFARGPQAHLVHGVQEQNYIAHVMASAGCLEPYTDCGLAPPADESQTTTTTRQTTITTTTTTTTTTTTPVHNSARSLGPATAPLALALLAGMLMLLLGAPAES

[27] = biological target: T2, Intestinal-type alkaline phosphatase; assay: human intestinal alkaline phosphatase activators, dose response, biochemical, luminescence, uHTS hits (AID 463120); type: functional

## CCCCC(=O)NC(c1ccccc1)c1ccc2cccnc2c1O (stereo not drawn)
Cells [1]
  EC50: 7.75 µM (active)
[2]
  EC50: 1.03 µM (active)
[3]
  AC50: 10.9 µM (active)
[4]
  EC50: 0.502 µM (active)
[5]
  AC50: 63.3 µM (active)
Cells [6]
  EC50: > 350 µM (not active)
[7]
  AC50: 2.13 µM (active)
[8]
  AC50: 9.11 µM (active)
[9]
  EC50: 24.2 µM (active)
[10]
  AC50: 2.44 µM (active)
[11]
  AC50: 9.22 µM (active)
[12]
  AC50: 1.31 µM (active)
[13]
  AC50: 5.47 µM (active)

## CC(=O)N(Cc1ccc(F)cc1)C1=C(NCCc2ccccc2)C(=O)c2ccccc2C1=O
[14]
  CC50: 5.56 µM (active)
Cells [15]
  IC50: 3.23 µM (active)
[16]
  EC50: 7.95 µM (active)
[17]
  AC50: 8.23 µM (active)
Nonstructural protein 1
  IC50: 32.2 µM (active)
[18]
  CC50: 5.95 µM (active)
[19]
  CC50: 0.67 µM (active)
[20]
  AC50: 5.21 µM (active)
[21]
  CC50: 7 µM (active)
[22]
  AC50: 5.61 µM (active)

## O=C(N/N=C1\C/C(=N\NC(=O)c2ccncc2)c2ccccc21)c1ccncc1
[23]
  IC50: 1.35 µM (active)

## O=C(/C=C/c1cccs1)NC(=S)NNC(=O)c1ccccc1O
[24]
  EC50: > 120 µM (not active)
[25]
  EC50: 11 µM (active)
[26]
  IC50: 70.4 µM (active)
[27]
  EC50: 8.8 µM (active)
